In US9522920B2, “Bromodomain inhibitors and uses thereof” (Constellation Pharmaceuticals, Inc., priority 2010, dated 2016):
Like-named read-outs stand apart in the source and are kept apart here.

What was measured:
[1] = target: T1, BRD4(BD1) (Homo sapiens, UniProt O60885); test: BRD4 AlphaLisa binding assay (Alphascreen)
T1 construct: His; made in house
Experimental: Specifically, in a 384 well ProxiPlate BRD4(BD1) (30 nM final) was combined with peptide (200 nM final) in 40 mM HEPES (pH 7.0), 40 mM NaCl, 1 mM DTT, 0.01% (w/v) BSA, and 0.008% (w/v) Brij-35 either in the presence of DMSO (final 1.2% DMSO) or compound dilution series in DMSO. After 20 minute incubation at room temperature Alpha streptavidin donor beads and AlphaLisa anti-Flag acceptor beads were added to a final concentration of 10 ug/mL each. After three hours equilibration plates were read on an Envision instrument and IC50s calculated using a four parameter non-linear curve fit.

[2] = test system: IL-6 secretion; test: Cell-based IL-6 quantification assay (ELISA, Mesoscale) in LPS-stimulated THP-1 cells; settings: read-out: IL6
Experimental: 100,000 THP-1 cells were seeded in RPMI1640-10% FBS in 96-well plates. LPS (E. Coli Invitrogen) in RPMI-10% FBS at a final concentration of 4 μg/mL was added to the wells and the cells are then incubated in the presence of various concentrations of compounds for 16 h. Plates are spun ([…], 5 min), an aliquot of 25 uL supernatant is transferred in to an ELISA plate (Mesoscale technology, MSD) and the detection of IL-6 is performed using manufacturer's instructions. The amount of cells in each well is assessed using CellTiter-Glo® (Promega). The ratio of ELISA value/CellTiter-Glo value is used to calculate the percent of inhibition of IL-6 secretion.

[3] = test system: MYC mRNA; test: cMyc RNA quantification assay (QuantiGene) in MV4:11 cells; format: cell-based; settings: read-out: MYC-MV411
Experimental: (§1) MV4:11 (AML) or Raji (Burkitt's lymphoma) cells were seeded in a 96-well plate and incubated in the presence of various concentrations of compounds for 4 h. Relative mRNA levels were quantitated by using QuantiGene 2.0 assay (Affymetrix) according to the manufacturer's recommendation. Signals were detected by using an Envision plate reader (Perkin-Elmer). Biological duplicates were averaged and normalized to vehicle (DMSO) control to calculate percent MYC mRNA levels.

[4] = test system: MYC mRNA; test: cMyc RNA quantification assay (QuantiGene) in Raji cells; format: cell-based; settings: Homo sapiens, 4 h
Experimental: as §1

[5] = Table 14, BRD4 AlphaLisa Binding Assay, read-out: Alpha screen
[6] = Homo sapiens, THP-1, 16 h, Table 14, THP-1 cells, LPS, 16 h
[7] = Homo sapiens, MV4-11, 4 h, Table 14, MV4:11 cells
[8] = Table 6, BRD4(BD1) 30 nM, H4-tetraacetyl peptide 200 nM, read-out: BRD4 Alphascreen IC50
[9] = Homo sapiens, THP-1, 16 h, Table 7, THP-1 cells, LPS 4 μg/mL, 16 h, normalised to CellTiter-Glo
[10] = Table 7, Raji (Burkitt's lymphoma) cells

| IC50 [1, 5] | IC50 [2, 6] | IC50 [3, 7] | IC50 [1, 8] | IC50 [4, 10] | Structure (SMILES) | also measured |
| --- | --- | --- | --- | --- | --- | --- |
| > 1000 nM | > 1000 nM | > 1000 nM |  |  | Cc1noc2c1-c1ccccc1C(c1ccc(Cl)cc1)=N[C@H]2CC(N)C(F)(F)F (mixture of isomers) [Compound 232, Mixture of (2S)-3-((4S)-6-(4-chlorophenyl)-1-methyl-4H-benzo[c]isoxazolo[4,5-e]azepin-4-yl)-1,1,1-trifluoropropan-2-amine and (2R)-3-((4S)-6-(4-chlorophenyl)-1-methyl-4H-benzo[c]isoxazolo[4,5-e]azepin-4-yl)-1,1,1-trifluoropropan-2-amine] |  |
| > 1000 nM | > 1000 nM | > 1000 nM |  |  | CC(=O)NC(C[C@@H]1N=C(c2ccc(Cl)cc2)c2ccccc2-c2c(C)noc21)C(F)(F)F (mixture of isomers) [Compound 244, Mixture of N-((2S)-3-((4S)-6-(4-chlorophenyl)-1-methyl-4H-benzo[c]isoxazolo[4,5-e]azepin-4-yl)-1,1,1-trifluoropropan-2-yl)acetamide and N-((2R)-3-((4S)-6-(4-chlorophenyl)-1-methyl-4H-benzo[c]isoxazolo[4,5-e]azepin-4-yl)-1,1,1-trifluoropropan-2-yl)acetamide] |  |
| < 500 nM | < 500 nM | < 500 nM |  |  | CCOC(=O)NC1N=C(c2ccc(Cl)cc2)c2ccccc2-c2c(C)noc21 (single isomer, unassigned) [Compound 253, Ethyl (6-(4-chlorophenyl)-1-methyl-4H-benzo[c]isoxazolo[4,5-e]azepin-4-yl)carbamate] |  |
| 500 to 1000 nM |  |  |  |  | CCOC(=O)NC1N=C(c2ccc(Cl)cc2)c2ccccc2-c2c(C)noc21 (single isomer, unassigned) [Compound 254, Ethyl (6-(4-chlorophenyl)-1-methyl-4H-benzo[c]isoxazolo[4,5-e]azepin-4-yl)carbamate] | IC50 ([2]; Table 14, THP-1 cells, LPS, 16 h): > 1000 nM; IC50 ([3]; Table 14, MV4:11 cells, 4 h): > 1000 nM |
|  |  |  | < 500 nM | < 500 nM | CCNC(=O)C[C@@H]1N=C(c2ccc(Cl)cc2)c2cc(OC)ccc2-c2c(C)noc21 [Compound 160, 2-((4S)-6-(4-chlorophenyl)-8-methoxy-1-methyl-4H-benzo[c]isoxazolo[4,5-e]azepin-4-yl)-N-ethylacetamide] | IC50 [2, 9]: < 500 nM |
|  |  |  | < 500 nM | > 1000 nM | CCNC(=O)C[C@@H]1N=C(c2ccc(Cl)cc2)c2ccccc2-c2c1noc2C [Compound 163, 2-((4S)-6-(4-chlorophenyl)-1-methyl-4H-benzo[c]isoxazolo[4,3-e]azepin-4-yl)-N-ethylacetamide] | IC50 [2, 9]: < 500 nM |
|  |  |  | < 500 nM | < 500 nM | CNc1nccc2c1C(c1ccc(Cl)cc1)=NCc1onc(C)c1-2 [Compound 173, 6-(4-Chlorophenyl)-N,1-dimethyl-4H-isoxazolo[5,4-c]pyrido[4,3-e]azepin-7-amine] | IC50 [2, 9]: < 500 nM |
|  |  |  | < 500 nM | 500 to 1000 nM | CCNc1nccc2c1C(c1ccc(Cl)cc1)=NCc1onc(C)c1-2 [Compound 174, 6-(4-Chlorophenyl)-N-ethyl-1-methyl-4H-isoxazolo[5,4-c]pyrido[4,3-e]azepin-7-amine] | IC50 [2, 9]: < 500 nM |
|  |  |  | < 500 nM | > 1000 nM | Cc1noc2c1-c1ccnc(N(C)C)c1C(c1ccc(Cl)cc1)=NC2 [Compound 175, 6-(4-Chlorophenyl)-N,N,1-trimethyl-4H-isoxazolo[5,4-c]pyrido[4,3-e]azepin-7-amine] | IC50 [2, 9]: 500 to 1000 nM |
|  |  |  | < 500 nM | > 1000 nM | Cc1noc2c1-c1sc(C)c(C)c1C(c1ccc(Cl)cc1)=N[C@H]2Cc1nccs1 [Compound 188, (6S)-4-(4-chlorophenyl)-2,3,9-trimethyl-6-(thiazol-2-ylmethyl)-6H-isoxazolo[5,4-c]thieno[2,3-e]azepine] | IC50 [2, 9]: < 500 nM |
| > 1000 nM | 500 to 1000 nM |  |  |  | Cc1noc2c1-c1ccccc1C(c1ccc(F)cn1)=N[C@H]2CC(N)=O [Compound 196] | IC50 ([4]; Table 14, Raji cells): > 1000 nM |
| < 500 nM | < 500 nM |  |  |  | Cc1noc2c1-c1ccc(OC(F)(F)F)cc1C(c1ccc(Cl)cc1)=N[C@H]2CC(N)=O [Compound 197] | IC50 ([4]; Table 14, Raji cells): < 500 nM |
| < 500 nM | < 500 nM |  |  |  | Cc1noc2c1-c1sc(C)c(C)c1C(c1cscn1)=N[C@H]2CC(N)=O [Compound 198] | IC50 ([4]; Table 14, Raji cells): 500 to 1000 nM |
| < 500 nM | < 500 nM |  |  |  | Cc1noc2c1-c1ccccc1C(c1ccc(Cl)cc1)=N[C@H]2CC(=O)NCCF [Compound 199] | IC50 ([4]; Table 14, Raji cells): < 500 nM |
| > 1000 nM | > 1000 nM |  |  |  | Cc1noc2c1-c1ccc(Cl)cc1C(c1ccc(C(F)(F)F)cc1)=N[C@H]2CC(=O)O [Compound 200] | IC50 ([4]; Table 14, Raji cells): > 1000 nM |
| < 500 nM | < 500 nM |  |  |  | Cc1noc2c1-c1ccc(Cl)cc1C(c1ccc(C(F)(F)F)cc1)=N[C@H]2CC(N)=O [Compound 201] | IC50 ([4]; Table 14, Raji cells): 500 to 1000 nM |
| < 500 nM | < 500 nM |  |  |  | Cc1noc2c1-c1ccccc1C(c1ccc(Cl)cc1)=N[C@H]2CC(=O)NC(C)(C)C [Compound 205] | IC50 ([4]; Table 14, Raji cells): > 1000 nM |
| < 500 nM | < 500 nM | 500 to 1000 nM |  |  | Cc1noc2c1-c1ccc(Cl)cc1C(c1ccc(F)cc1)=N[C@H]2CC(N)=O [Compound 211] |  |
| < 500 nM | < 500 nM | < 500 nM |  |  | Cc1noc2c1-c1ccc(F)cc1C(c1ccc(C#N)cc1)=N[C@H]2CC(N)=O [Compound 212] |  |
| < 500 nM | < 500 nM | < 500 nM |  |  | Cc1noc2c1-c1ccc(-c3ccc(N)nc3)cc1C(c1ccc(Cl)cc1)=N[C@H]2CC(N)=O [Compound 213] |  |
| < 500 nM | < 500 nM | < 500 nM |  |  | Cc1noc2c1-c1ccccc1C(c1ccc(Cl)cc1)=N[C@H]2CC(=O)NCCO [Compound 214] |  |
|  | > 1000 nM | > 1000 nM |  |  | Cc1noc2c1-c1ccc(Cl)cc1C(c1ccc(F)cc1)=NC21CC1 [Compound 250, 8-Chloro-6-(4-fluorophenyl)-1-methylspiro[benzo[c]isoxazolo[4,5-e]azepine-4,1′-cyclopropane]] |  |
|  | < 500 nM | < 500 nM |  |  | Cc1noc2c1-c1ccc(-c3ccc(N)nc3)cc1C(c1ccc(F)cc1)=NC21CC1 [Compound 251, 5-(6-(4-Fluorophenyl)-1-methylspiro[benzo[c]isoxazolo[4,5-e]azepine-4,1′-cyclopropan]-8-yl)pyridin-2-amine] |  |

| Structure (SMILES) | IC50 [1, 5] | IC50 [2, 6] | IC50 [3, 7] | IC50 [1, 8] | IC50 [4, 10] | also measured |
| --- | --- | --- | --- | --- | --- | --- |
| Cc1noc2c1-c1ccnc(N)c1C(c1ccc(Cl)cc1)=NC2 [Compound 172, 6-(4-Chlorophenyl)-1-methyl-4H-isoxazolo[5,4-c]pyrido[4,3-e]azepin-7-amine] |  |  |  | < 500 nM | 500 to 1000 nM | IC50 ([2]; Homo sapiens, THP-1, 16 h): < 500 nM |
| Cc1noc2c1-c1sc(C)c(C)c1C(Oc1ccccc1)=N[C@H]2CC(N)=O [Compound 186, 2-((6S)-2,3,9-trimethyl-4-phenoxy-6H-isoxazolo[5,4-c]thieno[2,3-e]azepin-6-yl)acetamide] |  |  |  | 500 to 1000 nM | > 1000 nM | IC50 ([2]; Homo sapiens, THP-1, 16 h): 500 to 1000 nM |
| Cc1noc2c1-c1sc(C)c(C)c1C(c1ccc(Cl)cc1)=N[C@H]2Cc1ncc[nH]1 [Compound 187, (6S)-6-((1H-imidazol-2-yl)methyl)-4-(4-chlorophenyl)-2,3,9-trimethyl-6H-isoxazolo[5,4-c]thieno[2,3-e]azepine] |  |  |  | < 500 nM | > 1000 nM | IC50 ([2]; Homo sapiens, THP-1, 16 h): > 1000 nM |
